The record followed here is patent publication US9598363B2, “Plant growth regulating compounds” (SYNGENTA PARTICIPATIONS AG, priority 2013, dated 2017).

Data set [1] has as its system Orobanche cumana Wallr. seeds. Description: Orobanche cumana seed germination test on glass fiber filter paper in petri dishes. The class given is in vivo. To be noted: preconditioned Orobanche cumana seeds, N = 5 × 100 seeds. The method, then: The effect of compounds of Formula (I) on germination of Orobanche cumana Wallr. seeds was evaluated on glass fiber filter paper (GFFP) in petri dishes. Seeds were preconditioned at moisture and suitable temperature to become responsive to the specific chemical germination stimulants.
Test compounds were dissolved in DMSO (10,000 mg/L) and stored at room temperature in a desiccators with desiccants. The stock solutions were dissolved with deionised water to the appropriate final test concentration.
Seeds of O. cumana race ‘F’ were collected from sunflower fields in Manzanilla (Seville, Spain) in 2008 (seed lot IN153) and stored at room temperature. To separate seeds from heavy organic debris, a modified sucrose floatation technique as described by Hartman & Tanimonure (Plant Disease (1991), 75, p. 494) was applied. Seeds were filled into a separation funnel and stirred in water. When seeds floated to the surface, the water fraction containing heavy debris was discarded. Seeds were re-suspended in 2.5 M sucrose solution (specific gravity of 1.20) and heavy debris was allowed to settle down for 60 min. After removing debris, seeds were disinfected in 1% sodium hypochlorite solution and 0.025% (v/v) Tween 20 for 2 min. The seeds were decanted onto two layers of cheesecloth, rinsed with sterile deionised water and re-suspended in sterile deionised water. 2 mL of the seed suspension containing approximately 150-400 seeds was spread evenly on two layers of sterile glass fiber filter paper disc ([…]) in Petri dishes (Ø9 cm). After wetting the discs with 3 mL sterile deionised water, petri dishes were sealed with parafilm. Seeds were incubated for 10 days at 20° C. in the dark for seed conditioning. The upper disc with conditioned seeds was briefly dried, transferred to a petri dish lined with a dry GFFP disc, and wetted with 6 mL of the appropriate test solution. The compounds of Formula (I) were tested at concentrations of 0.01, 0.1, and 1 mg/L. The strigolactone analogue GR24 (commercially available as a mixture of isomers) was included as positive control and 0.01% DMSO as negative control. All treatments were tested in five replicates. Seeds were re-incubated at 20° C. in the dark and examined for germination 10 days later. The radicles of germinated seeds were stained for 5 min with blue ink (PELIKAN #4001, Germany) in 5% acetic acid according to Long et al. (Seed Science Research (2008), 18, p. 125). After staining, seeds were photographed using a camera stand mounted with a digital SLR camera (Canon EOS 5D). Germination of 100 seeds per replicate was evaluated on digital images. Seeds were considered germinated when the radicle protruded from the seed coat.

[2] abbreviates: 1 mg/L, control (0.01% DMSO): 0.75% germination.
The mark [3] stands for this setting: concentration 0.01 mg/L, control (0.01% DMSO): 1.4% germination.
Where [4] appears, read: concentration 0.1 mg/L, control (0.01% DMSO): 1.4% germination.
Where [5] appears, read: concentration 1 mg/L, control (0.01% DMSO): 1.4% germination.

Broadly, the melting point is the temperature of the solid-liquid transition.

In turn, `C#CCN1C(=O)C(C)=CC1Oc1ccc(Br)cc1` (stereo not shown) showed a melting point of 92 to 94 °C. For `COCN1C(=O)C(C)=CC1OC(=O)NCc1ccccc1` (stereo not shown) [Ia-1, [1-(methoxymethyl)-4-methyl-5-oxo-2H-pyrrol-2-yl]N-benzylcarbamate], the “Germination (%)” value in data set [1] (setting [2]) is on record as 86.8%. For the molecule `CC1=CC(OC(=O)NCc2ccccc2)N(C)C1=O` (stereo not shown) [Ia-2, (1,4-dimethyl-5-oxo-2H-pyrrol-2-yl) N-benzylcarbamate], the melting point came to 106 °C. In data set [1] (setting [2]), the “Germination (%)” value worked out at 76.6%. Take `CON1C(=O)C(C)=CC1OC(=O)NCc1ccccc1` (stereo not shown) [Ia-3, (1-methoxy-4-methyl-5-oxo-2H-pyrrol-2-yl) N-benzylcarbamate]: in data set [1] (setting [2]), the “Germination (%)” value is recorded as 44.8%. For the molecule `CC1=CC(OC(=O)NCc2ccccc2)N(CC(F)(F)F)C1=O` (stereo not shown) [Ia-5, [4-methyl-5-oxo-1-(2,2,2-trifluoroethyl)-2H-pyrrol-2-yl]N-benzylcarbamate], in data set [1] (setting [2]), the “Germination (%)” value came out at 16.2%.

On to `CC1=CC(OC(=O)NCc2ccccc2)N(C2CC2)C1=O` (stereo not shown) [Ia-6, (1-cyclopropyl-4-methyl-5-oxo-2H-pyrrol-2-yl) N-benzylcarbamate], for which the “Germination (%)” value in data set [1] (setting [2]) is reported as 76.4%. As for `CC1=CC(OC(=O)NCc2ccccc2)N(C)C1=O` (stereo not shown) [drawing 24], the figures for the “Germination (%)” value in data set [1] (setting [3]), in data set [1] (setting [4]) and in data set [1] (setting [5]) were 60.8%, 67.4% and 76.6%, respectively. On the same counts, the results for `CC1=CC(OC(=O)NCc2ccccc2)OC1=O` (stereo not shown) [reference compound] are 8.8%, 41.8% and 82.6%. The corresponding values for `CC1=CC(O/C=C2/C(=O)OC3c4ccccc4CC23)OC1=O` (stereo not shown) [reference compound] are 65%, 78.4% and 86.6%.
